Measurements taken from US20050239143A1, “Immunocapture-based measurements of mammalian pyruvate dehydrogenase complex” (priority 2002, published 2005).
Entries after “also recorded” stand apart in the source; their conditions may differ.

Columns and labels:
[1] = system: T1, immunocaptured human heart PDH complex; assay: Immunocapture microplate PDH activity assay (NADH production) with known inhibitors and activators; type: biochemical; settings: agent added to wells with already immunocaptured PDH; unmodified human heart PDH control = 100%
T1 construct: tissue Analytic Biological Services, Inc; host or cells: human heart mitochondria, lauryl maltoside solubilized, captured on anti-E2 mAb plates
Protocol: FIG. 3 is a graph summarizing the results of tests for specific inhibition and activation of immunocaptured PDH activity. Known inhibitors and activators as shown were added directly to wells of microtiter plates and incubated with already immunocaptured PDH. Activity of the complex was monitored by measuring production of NADH per min/mg mitochondrial protein. Unmodified activity of human heart PDH (control) was set to 100%.
96-well ELISA plates (Falcon Probind) were coated with Goat-anti-mouse IgG Fc specific antibody (0.5 μg/well) in PBS buffer overnight at 4° C. After 3 washings, wells were coated with monoclonal anti-PDH-E2 subunit at 0.5 μg/well and incubated for 1-2 hours at room temperature. The wells were washed 3-4 times and covered with a 0.5% bovine serum albumin solution for 1 hour to minimize non-specific protein binding to the wells. After blocking, wells were washed 5 times and 100 μl of solubilized mitochondria applied and incubated in the wells at room temperature for 1 hour. After incubation, the supernatant was collected and reapplied to a second antibody-covered plate to test for residual activity.
100 μl/well of the reaction mixture (50 mM Tris, pH 7.5; 2 mM β-NAD+, 225 μM TPP, 2 mM pyruvate, 150 μM Coenzyme A, 2.6 mM cysteine, 1 mM MgCl2) was applied and NADH production was monitored either spectrophotometrically at […] or by measuring fluorescence in the presence of 15 μM resazurin and 0.5 U/ml diaphorase using an excitation wavelength of 530 nm and an emission wavelength of 590 nm for up to […]. […] Activity was calculated as nMol NADH/min/mg of mitochondrial protein.
Monoclonal anti-E2 antibodies were attached to 96-well microplates to which had been prebound goat anti-mouse IgG Fc mAbs, as described in Materials and Methods. […] Unbound protein was removed by extensive washings and NADH production then measured by the increase of absorbance at 340 nm or by coupled fluorescence assay, in the presence of NAD+, pyruvate, CoA, TPP, MgCl2, and cysteine as a reducing agent in 50 mM Tris-HCl buffer pH 7.8. […]

[2] = system: E1α subunit of immunoprecipitated PDH complex; assay: 2D-gel isoelectric focusing and Western blot with E1α-specific mAb to follow phosphorylation of immunoprecipitated PDH; settings: pH gradient 10 to 3; compared with untreated enzyme

SMILES	Increase of PDH activity [1] [%]	Inhibition of immunocaptured PDH activity [1]	Level of phosphorylation of E1α (isoelectric point shift) [2]
O=C(O)C(Cl)Cl [Dichloroacetate]	34	–	–
O=[As]O [sodium arsenite]	–	> 98%	–
Nc1ncnc2c1ncn2[C@@H]1O[C@H](COP(=O)(O)OP(=O)(O)OP(=O)(O)O)[C@@H](O)[C@H]1O [ATP]	–	about 70%	greatly increased the level of phosphorylation; also recorded: increases the phosphorylation patterns of E1α
